In brackets after ≈: the same amount, converted by molar mass. Several values for one entry are separate records, joined by “and”; a condition that tells them apart may be missing. Equal values may be shown once. Where only a bound is given, the exact number is not on record here.

The results in this text go back to publication PMC7218270 (EBioMedicine, 2020).

For one assay, the system named is S. pneumoniae. The assay can be described thus: MIC, planktonic cells. The note with it: Streptococcus pneumoniae, 18 h. The format is cell-based.
Another assay relates to E. coli A2. The assay can be described thus: MIC, planktonic cells. The format is cell-based. Particulars: Escherichia coli, A2, 18 h.
The subject of another assay is Enterococcus faecalis. The assay can be described thus: MIC, planktonic cells. The format is cell-based. The note with it: 18 h.
The test system of a further assay is P. aeruginosa 110. The assay can be described thus: MIC, planktonic cells. The format is cell-based. The note with it: Pseudomonas aeruginosa, 110, 18 h.
The test system of the next assay is P. aeruginosa CMCC10104. As to the kind of experiment: MIC, planktonic cells. The format is cell-based. The note with it: Pseudomonas aeruginosa, CMCC10104, 18 h.
For a further assay, the system named is Mlicrococcus scarlatinae. As to the kind of experiment: MIC, planktonic cells. The format is cell-based. Particulars: 18 h.
The subject of a further assay is P. aeruginosa ATCC27853. As to the kind of experiment: MIC, planktonic cells. The format is cell-based. The note with it: Pseudomonas aeruginosa, ATCC27853, 18 h.
The subject of assay [1] is Drug-susceptible P. aeruginosa. The assay can be described thus: Resistance study, serial passages. Particulars: passages at 1/4 × MIC. The format is cell-based.
The test system of the next assay is E. coli ATCC25922. As to the kind of experiment: MIC, planktonic cells. The format is cell-based. Particulars: Escherichia coli, ATCC25922, 18 h.
Another assay relates to P. aeruginosa 103. As to the kind of experiment: MIC, planktonic cells. The format is cell-based. Particulars: Pseudomonas aeruginosa, 103, 18 h.
In assay [2] the test system is Drug-susceptible C. albicans. The format is cell-based.
For the next assay, the system named is C. neoformans 4906. As to the kind of experiment: microbe, parasite or virus in culture. The format is cell-based. Particulars: Cryptococcus neoformans, 4906, 72 h.
Another assay has as its system C. neoformans 6120. As to the kind of experiment: microbe, parasite or virus in culture. The format is cell-based. Particulars: Cryptococcus neoformans, 6120, 72 h.
The subject of a further assay is C. albicans 006. As to the kind of experiment: microbe, parasite or virus in culture. The format is cell-based. The note with it: Candida albicans, 006, 72 h.
The next assay relates to C. albicans 7248. The assay can be described thus: microbe, parasite or virus in culture. The format is cell-based. Particulars: Candida albicans, 7248, 72 h.
Assay [3] has as its system fluconazole-resistant C. albicans. Details: species or system G. mellonella. Particulars: in vivo.
A further assay has as its system C. neoformans 001. As to the kind of experiment: microbe, parasite or virus in culture. The format is cell-based. Particulars: Cryptococcus neoformans, 001, 72 h.
The next assay relates to C. neoformans ATCC28957. The assay can be described thus: microbe, parasite or virus in culture. The format is cell-based. The note with it: Cryptococcus neoformans, ATCC28957, 72 h.
A further assay concerns C. albicans ATCC10231. As to the kind of experiment: microbe, parasite or virus in culture. The format is cell-based. The note with it: Candida albicans, ATCC10231, 72 h.

Turning to `CC(C)(O/N=C(\C(=O)N[C@@H]1C(=O)N2C(C(=O)[O-])=C(C[n+]3ccccc3)CS[C@H]12)c1csc(N)n1)C(=O)O` [Ceftazidime], the MIC is over 128 µg/mL in the assay with S. pneumoniae; 64 µg/mL (≈ 117 µM) in the assay on E. coli A2; over 128 µg/mL against Enterococcus faecalis; over 128 µg/mL against P. aeruginosa 110; 0.5 µg/mL (≈ 0.915 µM) against P. aeruginosa CMCC10104; over 128 µg/mL against Mlicrococcus scarlatinae. The MIC in the assay with P. aeruginosa ATCC27853 is 1 µg/mL (≈ 1.83 µM); with E. coli ATCC25922 it was 1 µg/mL (≈ 1.83 µM); against P. aeruginosa 103, over 128 µg/mL. Further, the MIC increase was 4 fold in [1] (at the 8th generation) and 16 fold in assay [1] (at the 20th generation).
With `OC(Cn1cncn1)(Cn1cncn1)c1ccc(F)cc1F` [Fluconazole], the MIC increase in assay [2] was 4 fold and 8 fold. The MIC is 128 µg/mL (≈ 418 µM) with C. neoformans 4906; over 128 µg/mL against C. neoformans 6120; 4 µg/mL (≈ 13.1 µM) in the assay with C. albicans 006; over 128 µg/mL in the assay with C. albicans 7248; 2 µg/mL (≈ 6.53 µM) against C. neoformans 001; 2 µg/mL (≈ 6.53 µM) against C. neoformans ATCC28957. Also, the MIC in the assay with C. albicans ATCC10231 turned out to be 4 µg/mL (≈ 13.1 µM). The “survival rate of G. mellonella” value in [3] is reported as 40%.
`CC1(C)S[C@@H]2[C@H](NC(=O)COc3ccccc3)C(=O)N2[C@H]1C(=O)O` [Penicillin V potassium]: the MIC in the assay with S. pneumoniae is over 128 µg/mL; against E. coli A2, over 128 µg/mL; with Enterococcus faecalis, over 128 µg/mL; in the assay on P. aeruginosa 110 it was over 128 µg/mL; in the assay on P. aeruginosa CMCC10104 it was 4 µg/mL; against Mlicrococcus scarlatinae, over 128 µg/mL. Moreover, the MIC was 2 µg/mL in the assay with P. aeruginosa ATCC27853, 2 µg/mL in the assay on E. coli ATCC25922 and over 128 µg/mL against P. aeruginosa 103.
For `CC(=O)N1CCN(c2ccc(OCC3COC(Cn4ccnc4)(c4ccc(Cl)cc4Cl)O3)cc2)CC1` (stereo not drawn) [ketoconazole], the MIC increase in assay [2] was found to be 4 fold.
Regarding `C[C@H]1COc2c(N3CCN(C)CC3)c(F)cc3c(=O)c(C(=O)O)cn1c23` [levofloxacin], the MIC increase in assay [1] (at the 8th generation) is on record as 4 fold; in assay [1] (at the 20th generation), 8 fold.
The compound Polymyxin B registered an MIC increase in [1] (at the 8th generation) of 16 fold.
